“And” between values parts separate entries of the source, which are not always exact repeats. Equal entries are not always repeated. Where two headings read alike, the source gives them in different places.
Experiments:
[1] = target: PvNMT (Plasmodium vivax, UniProt A5K1A2); test: NMT activity assay (CPM detection of free CoA), PvNMT; conditions: for SI: enzyme selectivity, HsNMT IC50/PvNMT IC50
[2] = target: T1, HsNMT1 (Homo sapiens, UniProt P30419); test: NMT activity assay (CPM detection of free CoA), HsNMT
T1 sequence (P30419 1-496): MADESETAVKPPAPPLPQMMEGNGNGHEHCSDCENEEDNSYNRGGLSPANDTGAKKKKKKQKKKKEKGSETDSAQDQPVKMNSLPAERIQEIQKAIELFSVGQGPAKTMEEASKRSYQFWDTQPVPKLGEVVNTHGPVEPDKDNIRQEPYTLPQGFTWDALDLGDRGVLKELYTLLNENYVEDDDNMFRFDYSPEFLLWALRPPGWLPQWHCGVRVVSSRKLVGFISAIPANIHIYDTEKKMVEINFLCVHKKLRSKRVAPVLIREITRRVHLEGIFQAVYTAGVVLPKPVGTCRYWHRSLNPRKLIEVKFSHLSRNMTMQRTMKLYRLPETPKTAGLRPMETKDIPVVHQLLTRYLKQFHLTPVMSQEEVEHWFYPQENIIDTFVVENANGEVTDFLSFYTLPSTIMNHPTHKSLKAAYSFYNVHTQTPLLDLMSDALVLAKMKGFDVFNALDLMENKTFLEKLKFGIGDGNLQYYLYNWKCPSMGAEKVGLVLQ

[3] = test system: P. vivax schizonts; test: P. vivax liver stage assay, schizonts; assay type: cell-based, Plasmodium vivax; conditions: 20 µM; for Number of liverstage Schizonts per well: 8 dpi, listed as Pi4K
Method: We next evaluated the candidate compounds against liver-stage P. vivax (Fig. 5). P. vivax sporozoites were obtained from three independent patient isolates and cultured in primary human hepatocytes from a single donor lot using a 384-well microculture system as described previously. Cells were infected and treated with NMTis at 20 µM beginning day 5 post-infection until day 8 when the infection rates were quantified by fluorescent microscopy.
Accordingly, we applied dose–response curves of all the tested NMTs on parasite isolates 2 and 3 over concentrations up to 20 µM (Fig. 5c, d, Source Data file). We observed similar kinetics for all inhibitors, with a gradual decrease in parasite load upon increasing the drug concentration. […] Nuclei were counted in each well using DAPI staining as a measure of toxicity (Supplementary Fig. 86, Supplementary Source data). We used the phosphatidylinositol 4-kinase inhibitor (PI4Ki), MMV390048, as a positive control for eliminating schizonts[37],[38].
Plasmodium vivax liver stage assays were performed as described previously. Cryopreserved primary human hepatocytes (Cat No. F00995-P) and hepatocyte culture medium (HCM) (InVitroGroTM CP Medium) were obtained from Bioreclamation IVT, Inc., (Baltimore, MD, USA). Briefly, we seeded 384-well plates with primary hepatocytes from a single donor lot at a density of 25,000 cells per well. We then infected the hepatocytes with 14,000 freshly hand-dissected sporozoites per well. Cells were exposed to the compounds at indicated concentrations from day 5 post-infection. We used Pi4K inhibitor MMV390048, at 20 µM, as a positive control to eliminate P. vivax liver schizonts. We then proceeded to feed cultures every day, replacing the compounds until day 8 post-infection. Cells were fixed with 4% PFA, permeabilized with 1% Triton X-100, blocked with 2% BSA, and stained with DAPI and PvUIS4 antibodies to detect schizonts and hypnozoites forms by confocal microscopy. For antibody dilutions, PvUIS4 (kind gift from Dr. Noah Sather, Seattle Children’s Research Institute) was diluted 1:250 and the secondary antibody was anti-mouse AlexaFluor-594 (Cat # A-11005; RRID: AB_2534073) diluted 1:1000. DAPI was diluted 1:2000. The images were processed, analyzed and outlier cells were removed using IMARIS (Bitplane Inc.) image analysis software.

[4] = test system: HepG2 cells; test: HepG2 cytotoxicity assay (Live/Dead staining); conditions: for Percentage of live HepG2 cells compared with diluent controls: replicates
Method: Therefore, we assessed cytotoxicity in the human hepatoma HepG2 cell line. We required a PvNMT to HsNMT SI > 20 for further screening. HepG2 cells were exposed to the compounds at concentrations ranging from 1 to 20 µM for […], and toxicity was assessed via live-dead staining.
The viability of the HepG2 cell line following exposure to the compounds was determined by a Live/Dead cell assay kit (Invitrogen). Briefly, cells were added to a 96-well plate at a concentration of 5000 cells per well, excluding the exterior wells. Cells were exposed to the compounds at different concentrations ranging from 1 to 20 µM. Cells were washed every 24 h and supplemented with fresh doses of compounds. At 72 h post-treatment, 1 µM calcein-AM and 1 µM ethidium homodimer were added to the wells and incubated for 10 min at 37 °C. After washing with PBS, the cells were visualized with fluorescent microscopy (Keyence BZ-X700).

[5] = PvNMT IC50, mean of two or more determinations
[6] = read-out: PvNMT IC50, mean of two or more determinations
[7] = read-out: HsNMT IC50, mean of two or more determinations

Sequence of PvNMT (A5K1A2 entry or part of it): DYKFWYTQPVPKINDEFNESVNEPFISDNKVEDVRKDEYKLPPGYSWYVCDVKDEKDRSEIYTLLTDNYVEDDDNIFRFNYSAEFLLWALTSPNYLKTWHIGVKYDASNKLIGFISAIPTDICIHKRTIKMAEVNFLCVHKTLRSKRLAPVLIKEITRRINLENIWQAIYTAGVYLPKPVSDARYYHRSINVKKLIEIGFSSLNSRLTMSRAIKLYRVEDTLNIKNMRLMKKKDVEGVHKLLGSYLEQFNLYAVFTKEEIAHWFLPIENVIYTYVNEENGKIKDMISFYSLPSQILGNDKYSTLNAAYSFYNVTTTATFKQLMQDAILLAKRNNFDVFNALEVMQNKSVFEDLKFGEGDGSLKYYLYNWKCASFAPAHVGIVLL

## Cc1nn(C)c(C)c1CCOc1ccccc1-c1ccnc(N2CCNCC2)c1 [Compound 12c]
[1]; [5]
  IC50: 0.00948 µM
[1]
  SI: 63.1
[2]
  IC50: 0.599 µM

## c1cncc(CCOc2cccnc2-c2ccnc(N3CCNCC3)c2)c1 [Compound 12h]
[1]; [5]
  IC50: 0.441 µM

## c1cncc(CCOc2ccccc2-c2cccc(N3CCNCC3)c2)c1 [Compound 12i]
[1]; [5]
  IC50: 1.54 µM

## Fc1ccc(-c2cccc(N3CCNCC3)c2)c(OCCc2cccnc2)c1 [Compound 12k]
[1]; [5]
  IC50: 3.12 µM

## Cc1n[nH]c(C)c1CCOc1cccnc1-c1cccc(N2CCNCC2)c1 [Compound 12m]
[1]; [5]
  IC50: 12.5 µM

## Cc1n[nH]c(C)c1CCOc1ccccc1-c1ccnc(N2CCNCC2)c1 [Compound 12n]
[1]; [5]
  IC50: 0.604 µM
[1]
  SI: 65.7
[2]
  IC50: 39.7 µM

## Cc1n[nH]c(C)c1CCOc1cccnc1-c1ccnc(N2CCNCC2)c1 [Compound 12o]
[1]; [6]
  IC50: 3.12 µM

## Cc1n[nH]c(C)c1CCOc1cc(F)ccc1-c1cccc(N2CCNCC2)c1 [Compound 12p]
[1]; [5]
  IC50: 0.368 µM
[1]
  SI: 62.7
[2]
  IC50: 23.1 µM

## Cc1nn(C)c(C)c1CCOc1ccccc1-c1cc(N2CCNCC2)ncn1 [Compound 16a]
[1]; [5]
  IC50: 9.39 µM

## Cc1nn(C)c(C)c1CCOc1cc(F)ccc1-c1cc(N2CCNCC2)ncn1 [Compound 16b]
[1]
  SI: 164 and 164.4
[1]; [6]
  IC50: 0.168 µM
[2]; [7]
  IC50: 27.6 µM

## Fc1ccc(-c2cc(N3CCNCC3)ncn2)c(OCCc2cccnc2)c1 [Compound 16d]
[1]; [5]
  IC50: 3.39 µM

## Cc1n[nH]c(C)c1CCOc1cc(F)ccc1-c1cc(N2CCNCC2)ncn1 [Compound 16e]
[1]; [6]
  IC50: 5.07 µM

## Cc1n[nH]c(C)c1CCOc1ccccc1-c1cc(N2CCNCC2)ncn1 [Compound 16f]
[1]; [5]
  IC50: 14 µM

## Cc1nn(C)c(C)c1CCOc1cccnc1-c1cccc(OCCN(C)C)c1 [Compound 26a]
[1]; [5]
  IC50: 0.266 µM

## CN(C)CCOc1cccc(-c2ncccc2OCCc2cccnc2)c1 [Compound 26d]
[1]; [5]
  IC50: 14.8 µM

## CN(C)CCOc1cccc(-c2ccccc2OCCc2cccnc2)c1 [Compound 26e]
[1]; [5]
  IC50: 12.8 µM

## CN(C)CCOc1cccc(-c2ccc(F)cc2OCCc2cccnc2)c1 [Compound 26f]
[1]; [6]
  IC50: 0.622 µM
[2]; [7]
  IC50: > 40 µM

## Cc1n[nH]c(C)c1CCOc1cccnc1-c1cccc(OCCN(C)C)c1 [Compound 26g]
[1]; [5]
  IC50: 19.4 µM

## Cc1n[nH]c(C)c1CCOc1ccccc1-c1cccc(OCCN(C)C)c1 [Compound 26h]
[1]; [5]
  IC50: 1.56 µM

## Cc1nn(C)c(C)c1CCOc1ccc2ccccc2c1-c1cccc(OCCN(C)C)c1 [Compound 30b]
[1]; [5]
  IC50: 19.8 µM

## CN(C)CCOc1cccc(-c2c(OCCc3cccnc3)ccc3ccccc23)c1 [Compound 30d]
[1]; [5]
  IC50: 7.21 µM

## Cc1n[nH]c(C)c1CCOc1ccc2ccccc2c1-c1ccnc(N2CCNCC2)c1 [Compound 30e]
[1]; [5]
  IC50: 2.88 µM

## Cc1n[nH]c(C)c1CCOc1ccc2ccccc2c1-c1cccc(OCCN(C)C)c1 [Compound 30f]
[1]; [5]
  IC50: 25.4 µM

## CS(=O)(=O)c1ccc(-c2cnc(N)c(-c3ccc(C(F)(F)F)nc3)c2)cc1 [MMV390048, reference compound]
[3]; isolate 2, technical replicates (Fig. 5b)
  Number of liverstage Schizonts per well: 0 per well and 1 per well (2×)
[3]; isolate 3, technical replicates (Fig. 5b)
  Number of liverstage Schizonts per well: 2 per well and 1 per well
[3]; positive control
  number of schizonts per well (in words): dramatically reduced the number of schizonts per well

## CN[C@@H]1C[C@H]2O[C@@](C)([C@@H]1OC)n1c3ccccc3c3c4c(c5c6ccccc6n2c5c31)C(=O)NC4 [staurosporine, Staurosporine, reference compound]
[4]; 1 μM
  Percentage of live HepG2 cells compared with diluent controls: 95.8547% and 101.587%
[4]; 2.5 μM
  Percentage of live HepG2 cells compared with diluent controls: 98.2188% and 92.7655%
[4]; 5 μM
  Percentage of live HepG2 cells compared with diluent controls: 90.1576% and 84.8522%
[4]; 10 μM
  Percentage of live HepG2 cells compared with diluent controls: 76.1985% and 71.2598%
[4]; 20 μM
  Percentage of live HepG2 cells compared with diluent controls: 50.831% and 59.1843%
[4]; at 10–20 µM, positive control
  HepG2 cell viability (in words): reduced the cell viability
